# What was measured:
# [1] = tested on: patients with advanced idiopathic Parkinson's disease complicated by "peak-dose" dyskinesia; assay: Double-blind cross-over study, advanced idiopathic Parkinson's disease with peak-dose dyskinesia; assay type: in vivo, human; settings: add on, 2.5 to 10 mg b.i.d., versus placebo; first hour in the on state
# Description: A typical study to investigate the efficacy of the compounds according to the invention for adverse effects in Parkinson's disease is described in the following. 40 patients of either sex with advanced idiopathic Parkinson's disease complicated by “peak-dose” dyskinesia participate in a double-blind, cross-over study. The main inclusion criteria are Hoehn & Yahr stage ≧2.5 (lit.: Hoehn H. M. et al, Neurology 1967; 17: 427-442), aged 40-75 years, symptom duration of at least 5 years, and a I-dopa treatment duration of at least 3 years. […] The dose of blinded medication is titrated over a period of 3 weeks in a range from 2.5 to 10 mg b.i.d. Then the medication is kept constant for 1 week. Before the start of titration and at the end of the treatment period a I-dopa challenge is performed according to […] et al. (Movement Disord, 1999, 14 (Suppl. 1), 54-59) using video recording. The main outcome measure of the protocol is the mean score for dyskinesia during the first hour in the “on” state after I-dopa challenge. Therefore, the investigator assesses every minute the severity of dyskinesia (0=absent, 4=severe disabling involuntary movements) from 0 to 4 in seven parts of the body (upper and lower limbs, face, trunk, neck). After a 2-week wash-out period the two study arms are crossed over and the protocol is repeated.
# [2] = tested on: patients with idiopathic Parkinson's disease; assay: Double-blind study in idiopathic Parkinson's disease (UPDRS); assay type: in vivo, human; settings: add on, 2.5 to 10 mg b.i.d., versus placebo
# Description: A typical study to investigate the efficacy of the compounds according to the invention in the treatment of idiopathic Parkinson's disease is described in the following. 180 patients of either sex with idiopathic Parkinson's disease participate in a double-blind study. The main inclusion criteria are Hoehn & Yahr stage ≧2.0 (Hoehn H. M. et al, Neurology 1967; 17: 427-442), aged 50-80 years, symptom duration of at least 5 years. […] The dose of blinded medication is titrated over a period of 4 weeks in a range from 2.5 to 10 mg b.i.d. Then the medication is kept constant for 1 week. Before the start of titration, at the end of the treatment period and 2 weeks after the end of the tiration period an assessment is performed in each patients using the unified Parkinson's disease rating scale (UPDRS part I to V according to S. Fahn et al., in: Recent developments in Parkinson's disease, vol. 2, MacMillan health information 1987, 153-163). […] Furthermore, the efficacy to treat tremor is shown by the means of the UPDRS.
# [3] = tested on: MSA patients; assay: Study in MSA patients (UPDRS); assay type: in vivo, human; settings: add on, 2.5 to 20 mg b.i.d., versus placebo, cross-over
# Protocol: A typical study to investigate the efficacy of the compounds according to the invention in MSA patients encompasses 30 patients of either sex with a symptom duration of at least 5 years and a significant reduction of central dopamine receptors in positron emission tomography (PET) scan. The study design is similar to that described above for Parkinson's disease. […] Before the start of titration and at the end of the treatment period a complete UPDRS assessment is performed in each patient (primary outcome measure). After a 2-week wash-out period the two study arms are crossed over and the protocol is repeated.
# [4] = tested on: patients with Huntington's disease; assay: Trial in patients with Huntington's disease; assay type: in vivo, human; settings: add on, 2.5 to 20 mg b.i.d., versus placebo
# Protocol: A typical trial to establish the effect of the compounds according to the invention on chorea, voluntary motor performance, and functional disability in patients with Huntington's disease encompasses 32 genetically diagnosed patients. […] The dose of blinded medication is titrated over a period of 3 weeks in a range from 2.5 to 20 mg b.i.d. Then the medication is held constant for 1 week. Assessments are performed in the week before and at the last day of the trial. Chorea is scored using the abnormal involuntary movement scale (AIMS, W. Guy, in: ECDEU assessment manual. Rockville Md.: US dept. of health, education and welfare, 1976: 534-537), the unified Huntington's disease rating scale (UHDRS, Huntington study group, 1996, Movement Disord, 11: 136-42), and judgement of video recordings. Voluntary motor performance is assessed using the UHDRS motor scale. Patients and their partners complete a questionnaire regarding functional disability.
# [5] = tested on: patients with cervical dystonia (spasmodic torticollis); assay: Double-blind placebo-controlled study in cervical dystonia (TWSTRS); assay type: in vivo, human; settings: 2.5 mg to 20 mg b.i.d.
# [6] = tested on: schizophrenic inpatients on long-term stable antipsychotic treatment; assay: Tardive dyskinesia study in schizophrenic inpatients (AIMS); assay type: in vivo, human; settings: add on to antipsychotic treatment, 2.5 to 20 mg b.i.d., versus placebo period
# Protocol: dyskinesia is a common adverse effect of long-term treatment with neuroleptics. A typical study to investigate the efficacy of the compounds according to the invention in tardive dyskinesia is described in the following. 32 schizophrenic (DSM-III-R) inpatients aged 25-60 years on long-term stable antipsychotic treatment (duration of at least 5 years) entered the study. […] The dose of blinded medication is titrated over a period of 3 weeks in a range from 2.5 to 20 mg b.i.d. Then the medication is maintained under double-blind conditions for 2 weeks. After a 2-week wash-out period, the test drugs are crossed over. Assessments of tardive dyskinesia by means of the Abnormal Involuntary Movement Scale (AIMS, see above) and of Parkinsonian extrapyramidal side effects (UPDRS, see above) are made pretreatment and posttreatment.
# [7] = tested on: Parkinson patients; settings: literature reports; cited from earlier work
smiles,measurement,setting,value
Cl.Fc1ccc(-c2cncc(CNC[C@H]3CCc4ccccc4O3)c2)cc1 [(R)-(−)-2-[5-(4-fluorophenyl)-3-pyridylmethylaminomethyl]-chromane hydrochloride],mean dyskinesia scores after I-dopa challenge,[1],significant clinical improvement
same,UPDRS scores,[2],significant clinical improvement
same,UPDRS,[3],significant clinical improvement
same,involuntary motor performance (chorea),"[4]; AIMS, UHDRS, video recordings",significant improvement
same,voluntary motor performance,[4]; UHDRS motor scale,significant improvement
same,TWSTRS scores,[5],significant improvement
same,AIMS scores,[6],significantly lower than during placebo period
O=C1CC2(CCCC2)CC(=O)N1CCCCN1CCN(c2ncccn2)CC1 [buspirone],anti-dyskinetic effect in Parkinson patients,[7],moderate anti-dyskinetic properties
